Experimental data taken from PMC9653409, “Generative deep learning enables the discovery of a potent and selective RIPK1 inhibitor” (Nature Communications, 2022).

Key:
Test in all cases: Kinase inhibitory activity profiling of RI-962@10 µM (406 kinases, Eurofins)
Format in all cases: biochemical
[1] = target: panel of human kinases (kinase named in endpoint) (Homo sapiens, UniProt Q16512); conditions: 10 µM; read-out: Activity (%), PRK1(h)
In short: (§1)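 Radiometric filter-binding kinase assays: enzyme preincubated 15 min with compound in 8 mM MOPS pH 7.0, 0.2 mM EDTA, 250 μM peptide substrate, 10 mM magnesium acetate, 10 μM [γ-33P]-ATP. Reaction started with Mg/ATP, run 40 min at room temperature, stopped with phosphoric acid; 33P incorporation read by scintillation counting. Other kinases by similar protocols.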

[2] = target: panel of human kinases (kinase named in endpoint) (Homo sapiens, UniProt Q9H4B4); conditions: 10 µM; read-out: Activity (%), Plk3(h)
In short: as §1

[3] = target: panel of human kinases (kinase named in endpoint) (Homo sapiens, UniProt P07948); conditions: 10 µM; read-out: Activity (%), Lyn(h)
In short: as §1

[4] = target: panel of human kinases (kinase named in endpoint) (Homo sapiens, UniProt O96017, R145W); conditions: 10 µM; read-out: Activity (%), CHK2(R145W)(h)
Sequence of panel of human kinases (kinase named in endpoint) (Homo sapiens, UniProt O96017, R145W) (O96017 whole entry R145W): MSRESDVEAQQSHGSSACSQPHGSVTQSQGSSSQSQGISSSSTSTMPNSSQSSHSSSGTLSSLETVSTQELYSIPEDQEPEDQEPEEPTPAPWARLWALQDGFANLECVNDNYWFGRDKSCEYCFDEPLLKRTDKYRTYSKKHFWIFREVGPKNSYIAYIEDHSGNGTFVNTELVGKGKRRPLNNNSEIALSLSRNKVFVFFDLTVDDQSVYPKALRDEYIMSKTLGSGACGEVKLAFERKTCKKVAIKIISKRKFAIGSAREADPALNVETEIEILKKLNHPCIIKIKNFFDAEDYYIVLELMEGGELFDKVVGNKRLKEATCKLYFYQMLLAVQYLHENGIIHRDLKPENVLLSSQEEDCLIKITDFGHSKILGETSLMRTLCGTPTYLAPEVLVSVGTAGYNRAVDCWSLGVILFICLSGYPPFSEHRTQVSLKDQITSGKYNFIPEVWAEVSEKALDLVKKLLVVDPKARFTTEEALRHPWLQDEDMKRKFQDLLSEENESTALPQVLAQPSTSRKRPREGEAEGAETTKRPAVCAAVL
In short: as §1

[5] = target: panel of human kinases (kinase named in endpoint) (Homo sapiens, UniProt Q6SA08); conditions: 10 µM; read-out: Activity (%), TSSK4(h)
In short: as §1

[6] = target: panel of human kinases (kinase named in endpoint) (Homo sapiens, UniProt Q9NQU5); conditions: 10 µM; read-out: Activity (%), PAK6(h)
In short: as §1

[7] = target: panel of human kinases (kinase named in endpoint) (Homo sapiens, UniProt Q96J92); conditions: 10 µM; read-out: Activity (%), WNK4(h)
In short: as §1

[8] = target: panel of human kinases (kinase named in endpoint) (Homo sapiens, UniProt Q9NRH2); conditions: 10 µM; read-out: Activity (%), SNRK(h)
In short: as §1

[9] = target: panel of human kinases (kinase named in endpoint) (Homo sapiens, UniProt Q8N4C8); conditions: 10 µM; read-out: Activity (%), MINK(h)
In short: as §1

[10] = target: panel of human kinases (kinase named in endpoint) (Homo sapiens, UniProt P52333); conditions: 10 µM; read-out: Activity (%), JAK3(h)
In short: as §1

[11] = target: panel of human kinases (kinase named in endpoint) (Homo sapiens, UniProt Q9HBH9); conditions: 10 µM; read-out: Activity (%), Mnk2(h)
Sequence of panel of human kinases (kinase named in endpoint) (Homo sapiens, UniProt Q9HBH9) (Q9HBH9 whole entry): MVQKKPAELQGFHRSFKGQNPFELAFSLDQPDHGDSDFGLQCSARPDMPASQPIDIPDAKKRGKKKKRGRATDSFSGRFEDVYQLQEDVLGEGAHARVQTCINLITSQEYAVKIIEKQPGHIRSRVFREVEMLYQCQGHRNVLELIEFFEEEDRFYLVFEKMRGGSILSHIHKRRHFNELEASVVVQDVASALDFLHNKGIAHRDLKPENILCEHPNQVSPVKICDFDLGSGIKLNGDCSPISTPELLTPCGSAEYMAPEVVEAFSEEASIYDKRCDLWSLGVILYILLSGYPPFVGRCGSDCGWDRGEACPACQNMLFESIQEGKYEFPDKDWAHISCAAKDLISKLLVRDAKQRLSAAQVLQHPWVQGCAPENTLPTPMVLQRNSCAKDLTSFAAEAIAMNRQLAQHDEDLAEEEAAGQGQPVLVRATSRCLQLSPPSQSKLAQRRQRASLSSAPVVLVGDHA
In short: as §1

[12] = target: panel of human kinases (kinase named in endpoint) (Homo sapiens, UniProt Q9NYY3); conditions: 10 µM; read-out: Activity (%), Snk(h)
Sequence of panel of human kinases (kinase named in endpoint) (Homo sapiens, UniProt Q9NYY3) (Q9NYY3 whole entry): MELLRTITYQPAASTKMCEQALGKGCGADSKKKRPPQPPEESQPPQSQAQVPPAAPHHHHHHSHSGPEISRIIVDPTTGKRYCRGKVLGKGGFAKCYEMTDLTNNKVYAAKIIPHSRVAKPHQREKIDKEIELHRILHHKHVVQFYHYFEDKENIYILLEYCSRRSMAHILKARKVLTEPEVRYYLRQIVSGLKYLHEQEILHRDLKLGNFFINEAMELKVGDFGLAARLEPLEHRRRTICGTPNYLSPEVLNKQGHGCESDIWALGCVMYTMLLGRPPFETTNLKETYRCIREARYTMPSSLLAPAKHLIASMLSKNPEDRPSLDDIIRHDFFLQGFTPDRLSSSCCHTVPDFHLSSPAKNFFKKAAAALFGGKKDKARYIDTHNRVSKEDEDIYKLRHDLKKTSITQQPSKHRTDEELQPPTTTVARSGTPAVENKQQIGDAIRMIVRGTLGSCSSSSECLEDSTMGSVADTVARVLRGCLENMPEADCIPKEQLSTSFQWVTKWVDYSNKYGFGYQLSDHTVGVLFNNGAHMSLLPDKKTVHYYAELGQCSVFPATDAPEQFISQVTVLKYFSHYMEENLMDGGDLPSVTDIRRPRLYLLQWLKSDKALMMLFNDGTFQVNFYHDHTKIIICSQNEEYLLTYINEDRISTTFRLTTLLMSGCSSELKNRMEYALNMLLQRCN
In short: as §1

[13] = target: panel of human kinases (kinase named in endpoint) (Homo sapiens, UniProt P06493); conditions: 10 µM; read-out: Activity (%), CDK1/cyclinB(h)
In short: as §1

[14] = target: panel of human kinases (kinase named in endpoint) (Homo sapiens, UniProt O14578); conditions: 10 µM; read-out: Activity (%), CRIK(h)
Sequence of panel of human kinases (kinase named in endpoint) (Homo sapiens, UniProt O14578) (O14578 whole entry): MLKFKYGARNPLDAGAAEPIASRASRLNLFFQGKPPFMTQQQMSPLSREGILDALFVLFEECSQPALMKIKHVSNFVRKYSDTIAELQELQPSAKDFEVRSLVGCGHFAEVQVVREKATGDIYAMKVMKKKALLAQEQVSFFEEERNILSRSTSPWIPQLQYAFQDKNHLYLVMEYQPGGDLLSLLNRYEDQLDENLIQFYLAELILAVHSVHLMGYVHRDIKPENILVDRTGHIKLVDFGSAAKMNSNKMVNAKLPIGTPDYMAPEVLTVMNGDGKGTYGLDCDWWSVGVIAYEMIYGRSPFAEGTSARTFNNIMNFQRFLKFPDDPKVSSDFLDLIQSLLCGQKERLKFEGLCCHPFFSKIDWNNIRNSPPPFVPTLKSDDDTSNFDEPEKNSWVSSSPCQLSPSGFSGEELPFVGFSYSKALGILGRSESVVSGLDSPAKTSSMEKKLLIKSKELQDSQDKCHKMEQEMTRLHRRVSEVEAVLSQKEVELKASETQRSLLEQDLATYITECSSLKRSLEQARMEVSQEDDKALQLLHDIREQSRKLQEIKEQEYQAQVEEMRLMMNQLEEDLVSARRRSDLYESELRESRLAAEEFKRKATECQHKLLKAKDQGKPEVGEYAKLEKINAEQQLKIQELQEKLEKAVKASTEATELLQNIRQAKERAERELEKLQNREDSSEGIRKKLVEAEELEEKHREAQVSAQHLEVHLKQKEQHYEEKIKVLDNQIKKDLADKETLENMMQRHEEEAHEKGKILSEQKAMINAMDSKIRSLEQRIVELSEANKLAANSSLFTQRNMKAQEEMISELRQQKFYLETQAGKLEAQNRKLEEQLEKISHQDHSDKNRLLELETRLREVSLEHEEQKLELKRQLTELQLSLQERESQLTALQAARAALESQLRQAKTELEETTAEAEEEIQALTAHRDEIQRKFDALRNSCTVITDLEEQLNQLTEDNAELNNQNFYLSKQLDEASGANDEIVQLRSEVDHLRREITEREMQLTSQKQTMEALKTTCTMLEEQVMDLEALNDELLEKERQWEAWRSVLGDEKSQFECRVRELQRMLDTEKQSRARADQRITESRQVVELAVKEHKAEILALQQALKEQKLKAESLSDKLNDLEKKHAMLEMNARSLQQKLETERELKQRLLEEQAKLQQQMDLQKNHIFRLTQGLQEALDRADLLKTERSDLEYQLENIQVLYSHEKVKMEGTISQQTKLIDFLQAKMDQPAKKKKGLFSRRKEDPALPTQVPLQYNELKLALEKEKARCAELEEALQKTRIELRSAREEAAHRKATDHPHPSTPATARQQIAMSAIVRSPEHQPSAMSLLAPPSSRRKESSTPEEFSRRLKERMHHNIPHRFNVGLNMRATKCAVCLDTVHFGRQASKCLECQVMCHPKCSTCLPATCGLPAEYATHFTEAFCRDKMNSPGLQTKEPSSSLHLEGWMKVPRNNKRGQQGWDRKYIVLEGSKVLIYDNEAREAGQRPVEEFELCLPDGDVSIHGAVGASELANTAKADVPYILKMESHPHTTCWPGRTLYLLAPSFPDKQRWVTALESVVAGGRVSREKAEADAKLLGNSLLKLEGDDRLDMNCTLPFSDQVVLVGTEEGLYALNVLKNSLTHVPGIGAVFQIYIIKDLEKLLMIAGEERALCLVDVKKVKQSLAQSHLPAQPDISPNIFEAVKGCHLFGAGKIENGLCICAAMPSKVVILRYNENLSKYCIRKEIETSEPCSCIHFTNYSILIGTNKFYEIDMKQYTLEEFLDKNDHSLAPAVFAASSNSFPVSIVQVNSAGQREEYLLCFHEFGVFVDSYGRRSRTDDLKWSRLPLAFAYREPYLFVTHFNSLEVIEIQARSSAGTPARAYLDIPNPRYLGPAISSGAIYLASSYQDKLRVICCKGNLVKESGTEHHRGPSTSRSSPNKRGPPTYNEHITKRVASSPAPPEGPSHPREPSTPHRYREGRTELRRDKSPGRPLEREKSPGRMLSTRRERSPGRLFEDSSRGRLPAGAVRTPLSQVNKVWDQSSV
In short: as §1

[15] = target: panel of human kinases (kinase named in endpoint) (Homo sapiens, UniProt P53355); conditions: 10 µM; read-out: Activity (%), DAPK1(h)
In short: as §1

[16] = target: panel of human kinases (kinase named in endpoint) (Homo sapiens, UniProt Q9C098); conditions: 10 µM; read-out: Activity (%), DCAMKL3(h)
In short: as §1

[17] = target: panel of human kinases (kinase named in endpoint) (Homo sapiens, UniProt Q02156); conditions: 10 µM; read-out: Activity (%), PKCε(h)
In short: as §1

[18] = target: panel of human kinases (kinase named in endpoint) (Homo sapiens, UniProt P53671); conditions: 10 µM; read-out: Activity (%), LIMK2(h)
Sequence of panel of human kinases (kinase named in endpoint) (Homo sapiens, UniProt P53671) (P53671 whole entry): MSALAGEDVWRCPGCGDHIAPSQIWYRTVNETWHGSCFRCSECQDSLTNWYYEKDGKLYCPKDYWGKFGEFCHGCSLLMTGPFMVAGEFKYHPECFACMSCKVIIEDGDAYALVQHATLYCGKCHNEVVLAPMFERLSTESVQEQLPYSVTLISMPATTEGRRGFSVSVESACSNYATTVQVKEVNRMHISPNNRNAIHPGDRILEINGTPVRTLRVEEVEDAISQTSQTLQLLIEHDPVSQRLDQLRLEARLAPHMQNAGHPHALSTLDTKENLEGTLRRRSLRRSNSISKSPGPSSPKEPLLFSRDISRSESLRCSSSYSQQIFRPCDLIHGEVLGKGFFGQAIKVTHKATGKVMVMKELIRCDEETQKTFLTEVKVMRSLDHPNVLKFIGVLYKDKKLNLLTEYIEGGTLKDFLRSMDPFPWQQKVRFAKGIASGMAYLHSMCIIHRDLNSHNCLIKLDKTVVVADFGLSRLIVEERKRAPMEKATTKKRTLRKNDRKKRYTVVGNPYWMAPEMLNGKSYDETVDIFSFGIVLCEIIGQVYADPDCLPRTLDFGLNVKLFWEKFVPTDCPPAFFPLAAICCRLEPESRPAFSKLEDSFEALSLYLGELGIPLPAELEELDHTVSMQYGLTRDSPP
In short: as §1

[19] = target: panel of human kinases (kinase named in endpoint) (Homo sapiens, UniProt Q9UEE5); conditions: 10 µM; read-out: Activity (%), DRAK1(h)
In short: as §1

[20] = target: panel of human kinases (kinase named in endpoint) (Homo sapiens, UniProt Q96PY6); conditions: 10 µM; read-out: Activity (%), NEK1(h)
In short: as §1

[21] = target: panel of human kinases (kinase named in endpoint) (Homo sapiens, UniProt Q9UM73); conditions: 10 µM; read-out: Activity (%), ALK(h)
In short: as §1

[22] = target: panel of human kinases (kinase named in endpoint) (Homo sapiens, UniProt P29320); conditions: 10 µM; read-out: Activity (%), EphA3(h)
In short: as §1

[23] = target: panel of human kinases (kinase named in endpoint) (Homo sapiens, UniProt Q08345); conditions: 10 µM; read-out: Activity (%), DDR1(h)
In short: as §1

[24] = target: panel of human kinases (kinase named in endpoint) (Homo sapiens, UniProt O75385); conditions: 10 µM; read-out: Activity (%), ULK1(h)
In short: as §1

[25] = target: panel of human kinases (kinase named in endpoint) (Homo sapiens, UniProt Q9H093); conditions: 10 µM; read-out: Activity (%), NUAK2(h)
In short: as §1

[26] = target: panel of human kinases (kinase named in endpoint) (Homo sapiens, UniProt P51812); conditions: 10 µM; read-out: Activity (%), Rsk2(h)
Sequence of panel of human kinases (kinase named in endpoint) (Homo sapiens, UniProt P51812) (P51812 whole entry): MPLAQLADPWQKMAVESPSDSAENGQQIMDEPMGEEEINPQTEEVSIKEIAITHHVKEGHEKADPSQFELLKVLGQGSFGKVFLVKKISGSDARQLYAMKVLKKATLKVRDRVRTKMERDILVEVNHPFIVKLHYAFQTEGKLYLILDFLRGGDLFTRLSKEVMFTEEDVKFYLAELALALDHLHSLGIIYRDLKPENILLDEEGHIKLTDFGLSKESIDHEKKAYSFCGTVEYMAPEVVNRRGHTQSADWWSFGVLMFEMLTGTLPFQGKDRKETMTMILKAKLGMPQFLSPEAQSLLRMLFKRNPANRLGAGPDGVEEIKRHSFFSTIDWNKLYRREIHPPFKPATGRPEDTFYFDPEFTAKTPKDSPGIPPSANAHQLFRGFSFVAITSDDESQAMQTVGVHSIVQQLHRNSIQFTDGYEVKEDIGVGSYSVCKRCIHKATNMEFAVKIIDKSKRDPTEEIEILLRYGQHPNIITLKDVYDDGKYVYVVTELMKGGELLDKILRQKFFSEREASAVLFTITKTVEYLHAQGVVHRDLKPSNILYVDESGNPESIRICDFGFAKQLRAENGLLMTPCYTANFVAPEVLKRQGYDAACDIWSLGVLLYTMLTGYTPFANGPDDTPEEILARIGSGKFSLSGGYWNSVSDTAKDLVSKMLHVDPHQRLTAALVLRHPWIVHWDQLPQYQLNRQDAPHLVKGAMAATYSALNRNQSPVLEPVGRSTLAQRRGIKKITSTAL
In short: as §1

## CC(C)C(=O)Nc1nc2cc(-c3ccc4c(c3)c(C(=O)NC(C)c3ccccc3)cn4C)ccn2n1 (centres unmarked) [RI-962]
[1]
  activity at 10 µM: 109%
[2]
  activity at 10 µM: 88%
[3]
  activity at 10 µM: 65%
[4]
  activity at 10 µM: 99%
[5]
  activity at 10 µM: 104%
[6]
  activity at 10 µM: 87%
[7]
  activity at 10 µM: 80%
[8]
  activity at 10 µM: 121%
[9]
  activity at 10 µM: 63%
[10]
  activity at 10 µM: 95%
[11]
  activity at 10 µM: 92%
[12]
  activity at 10 µM: 79%
[13]
  activity at 10 µM: 99%
[14]
  activity at 10 µM: 101%
[15]
  activity at 10 µM: 95%
[16]
  activity at 10 µM: 100%
[17]
  activity at 10 µM: 99%
[18]
  activity at 10 µM: 101%
[19]
  activity at 10 µM: 100%
[20]
  activity at 10 µM: 93%
[21]
  activity at 10 µM: 68%
[22]
  activity at 10 µM: 105%
[23]
  activity at 10 µM: 104%
[24]
  activity at 10 µM: 69%
[25]
  activity at 10 µM: 86%
[26]
  activity at 10 µM: 106%
